Values quoted from earlier work as cited in paper PMC10366102, “Dose escalation and expansion cohorts in patients with advanced breast cancer in a Phase I study of the CDK7-inhibitor samuraciclib” (Nature Communications, 2023).

Columns and labels:
[1] = design: method as in ref IB; details: ref IB, cited from earlier work
[2] = design: method as in ref IB; details: ref IB, cited from earlier work; remark: listed apart in the source
rats = test system: rats; design: method as in ref IB; details: ref IB; cited from earlier work

For `CC(C)c1cnn2c(NCc3ccccc3)cc(NC[C@H]3CCNC[C@@H]3O)nc12` [samuraciclib, Samuraciclib], the Oral bioavailability ([1]; dog) is given as “good oral bioavailability”, the “Apparent elimination half-life (T½)” value ([1]; dogs) is given as 9.5 h and the Plasma clearance ([1]; dogs) is given as “high”. For the same molecule, the Volume of distribution ([1]; dogs) was “high volume of distribution”, the Overall turnover ([2]; human hepatocytes) was “low” and the “Phase II metabolism (e.g., glucuronidation)” value ([2]; mouse and human hepatocytes) was “No evidence”. For the same molecule, the “Effects on CNS (Irwin) and respiratory systems” value (rats) was “No significant effects”.
